Experimental data reported in article PMC10379611 (International Journal of Molecular Sciences, 2023).
“Also recorded” adds a separate entry of the source. Read-outs that look alike come from different tables or passages of the source.

Assays:
OATP1A2 = biological target: T1, OATP1A2 (Homo sapiens, UniProt P46721); assay: OATP1A2 uptake assay (SR101) in overexpressing A431 cells
T1 sequence (P46721 1-670): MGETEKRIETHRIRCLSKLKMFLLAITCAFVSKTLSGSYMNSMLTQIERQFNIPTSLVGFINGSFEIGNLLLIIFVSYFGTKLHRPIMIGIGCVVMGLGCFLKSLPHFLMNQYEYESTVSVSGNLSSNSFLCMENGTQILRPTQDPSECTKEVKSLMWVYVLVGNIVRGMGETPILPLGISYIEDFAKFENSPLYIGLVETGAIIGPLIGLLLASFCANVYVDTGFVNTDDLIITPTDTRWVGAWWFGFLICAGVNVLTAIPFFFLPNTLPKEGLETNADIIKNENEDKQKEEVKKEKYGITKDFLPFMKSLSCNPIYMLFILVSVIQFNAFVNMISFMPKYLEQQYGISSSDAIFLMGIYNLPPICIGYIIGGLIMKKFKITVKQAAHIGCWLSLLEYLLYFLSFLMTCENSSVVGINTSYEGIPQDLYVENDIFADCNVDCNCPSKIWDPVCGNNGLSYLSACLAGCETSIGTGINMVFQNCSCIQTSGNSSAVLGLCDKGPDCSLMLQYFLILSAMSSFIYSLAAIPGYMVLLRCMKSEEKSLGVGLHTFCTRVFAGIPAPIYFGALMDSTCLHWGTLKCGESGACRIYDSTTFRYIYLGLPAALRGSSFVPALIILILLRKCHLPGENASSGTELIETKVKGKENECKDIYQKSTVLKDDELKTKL
Description: To study the function of OATPs, we used A431 cells overexpressing OATP1A2, OATP1B1, OATP1B3, or OATP2B1 and mock-transfected A431 cells, generated as previously described, as controls. The interactions between OATPs and the test compounds were studied in a microplate-based indirect assay by employing fluorescent dye substrates: pyranine for OATP1B1, OATP1B3, OATP2B1 and sulforhodamine 101 for OATP1A2 [44, 45]. Briefly, OATP-overexpressing A431 cells and mock-transfected A431 cells were seeded on 96-well plates (8 × 10^4 cells/well). The next day, the cells were washed three times with phosphate buffered saline (PBS, pH 7.4) and preincubated with 50 μL uptake buffer (125 mM NaCl, 4.8 mM KCl, 1.2 mM CaCl2, 1.2 mM KH2PO4, 12 mM MgSO4, 25 mM MES (2-(Nmorpholino) ethanesulfonic acid, and 5.6 mM glucose, pH 5.5 for OATP2B1 and pH 7.4 for OATP1A2, OATP1B1, or OATP1B3) at 37 °C for 5 min in the presence or absence of the tested compounds. The reaction was started by the addition of a final concentration of 20 μM pyranine (OATP1B1, OATP1B3, OATP2B1) or 0.5 μM sulforhodamine 101 (OATP1A2). After incubation at 37 °C for 10 min, the reactions were stopped and the cells were washed three times with ice-cold PBS. Fluorescence was measured using an Enspire plate reader (Perkin Elmer, Waltham, MA, USA) (Ex/Em: 460/510 nm (pyranine) or 586/605 nm (sulforhodamine 101), and OATP-dependent transport activity was determined by subtracting the fluorescence measured in mock-transfected cells.

ABCG2 = biological target: T2, ABCG2 (Homo sapiens, UniProt Q9UNQ0); assay: ABCG2 vesicular transport (lucifer yellow), HEK293 inverted membrane vesicles; conditions: up to 200 μM
T2 sequence (Q9UNQ0 1-655): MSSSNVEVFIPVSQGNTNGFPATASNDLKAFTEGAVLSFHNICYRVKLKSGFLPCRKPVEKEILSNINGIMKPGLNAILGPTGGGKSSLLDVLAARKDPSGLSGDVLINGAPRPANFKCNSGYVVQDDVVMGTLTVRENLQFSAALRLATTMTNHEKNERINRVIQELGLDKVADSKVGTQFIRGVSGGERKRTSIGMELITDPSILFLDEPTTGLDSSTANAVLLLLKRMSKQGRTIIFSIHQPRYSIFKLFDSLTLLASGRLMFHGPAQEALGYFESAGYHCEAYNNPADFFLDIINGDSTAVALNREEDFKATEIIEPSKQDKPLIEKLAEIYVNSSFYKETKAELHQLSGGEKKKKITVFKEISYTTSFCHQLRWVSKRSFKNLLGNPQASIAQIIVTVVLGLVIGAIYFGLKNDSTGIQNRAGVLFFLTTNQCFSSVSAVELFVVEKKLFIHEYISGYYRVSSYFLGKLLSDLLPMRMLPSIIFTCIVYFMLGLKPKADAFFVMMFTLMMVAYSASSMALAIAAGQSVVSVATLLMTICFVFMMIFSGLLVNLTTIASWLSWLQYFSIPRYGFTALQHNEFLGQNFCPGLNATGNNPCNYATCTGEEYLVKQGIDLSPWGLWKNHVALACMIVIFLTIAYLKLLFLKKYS
Description: ABCB1, ABCG2, and ABCC4 HEK293 membrane vesicles were prepared by Solvo Biotechnology, Budapest. The total protein content of membrane vesicle preparations was determined using the Lowry quantitation method and 30 µg (ABCG2) or 50 µg (ABCB1 and ABCC4) total protein/sample was used for the measurements. For ABCG2 vesicular transport, the fluorescent probe Lucifer yellow (LY) was present in the mixture at 5 μM final concentration. […] Uptake of the probe substrates into the inverted membrane vesicles was measured at 37 °C (ABCG2, ABCB1) or at 32 °C (ABCC4) for 10 min (ABCG2), 5 min (ABCB1), or 1.5 min (ABCC4) in the presence or absence of 4 mM Mg-ATP, in 75 μL final volume of the media (0.04 M MOPS-TRIS pH 7.2, 56 mM KCl, 6 mM MgCl2). The known reference inhibitors of the transporters (1 µM Ko143 for ABCG2, 50 µM Verapamil for ABCB1, and 150 µM MK571 for ABCC4) served as controls. Each test compound was dissolved in DMSO and a 0.75 µL volume was added to the samples. A DMSO solvent control was used in each experiment. The transport was stopped by the addition of ice-cold wash buffer to the samples, then rapidly filtered (MSFBN6B, Millipore, Burlington, MA, USA). Filters were washed with ice-cold wash buffer (0.04 M MOPS-TRIS pH 7.2, 70 mM KCl). For LY, vesicles retained on the filters were dissolved in 10% SDS and transferred into a 96-well microplate. After the addition of DMSO as a stabilizer, fluorescence was measured using a plate reader at 427/535 nm (Victor X3 Enspire Perkin-Elmer, Waltham, MA, USA). When radiolabeled compounds were used as substrates, radioactivity retained on the filter was measured by liquid scintillation counting in Optiphase HiSafe liquid (Perkin Elmer MicroBeta2 liquid scintillation counter, Perkin Elmer, Waltham, MA, USA). ATP-dependent transport was calculated by subtracting the values obtained in the presence of AMP from those obtained in the presence of ATP.

Structure (SMILES)	inhibition of OATP1A2 by Nirmatrelvir alone (OATP1A2; at 20 μM)	IC50 at 10 min (OATP1A2; human, pH 7.4)	effect on ABCG2 lucifer yellow vesicular transport (ABCG2)	maximum inhibition of OATP1A2 (OATP1A2; at 200 μM, SR101)	IC50 (OATP1A2; read-out: estimated IC50, OATP1A2, SR101 substrate, A431 cells)	IC50 (OATP1A2)	inhibition at 10 min, 200 µM (OATP1A2; human, A431 cells overexpressing OATP1A2, pH 7.4, probe sulforhodamine 101 (0.5 μM))
CC(C)(C)[C@H](NC(=O)C(F)(F)F)C(=O)N1C[C@H]2[C@@H]([C@H]1C(=O)N[C@H](C#N)C[C@@H]1CCNC1=O)C2(C)C [Nirmatrelvir]	only a minor inhibitory effect	79.5 µM	not affected; also recorded: negligible effect	–	–	–	–
O=c1nc(NO)ccn1[C@@H]1O[C@H](CO)[C@@H](O)[C@H]1O [EIDD-1931]	–	–	neither the function of ABCB1 nor that of ABCG2 was altered	20–40%	> 200 µM	–	–
CC(C)C(=O)OC[C@H]1O[C@@H](n2ccc(NO)nc2=O)[C@H](O)[C@@H]1O [EIDD-2801, Molnupiravir]	–	–	neither the function of ABCB1 nor that of ABCG2 was altered	–	–	> 200 µM	20 to 40%
